# Measurements taken from PubChem BioAssay AID1053144 (Broad Institute, 2014).
# Tested on: NPC TCF/LEF luciferase reporter, Wnt3a EC25, 24 h
# Experiment: Wnt/beta-catenin signaling activators, dose response, cell-based, iPS-derived NPC, luciferase, Wnt3a, cherry-pick (AID 1053144);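 also: Wnt3a stimulus is conditioned medium from Wnt3a-transfected mouse L cells at 5% in well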
row,Compound,AC30
1,Cc1ccccc1NC(=O)c1cc2ccccn2n1,4.78 µM
2,Nc1ccc2nc(-c3ccccc3)cnc2c1,8.28 µM
3,O=c1[nH]c(=O)n([C@H]2C[C@H](O)[C@@H](CO)O2)cc1Br,13.2 µM
4,CC1CC1C(=O)OCc1cc(=O)n2cc(Br)ccc2n1 (centres undefined),9.48 µM
5,Cc1oc(=O)c(NC(=O)c2cccc(Cl)c2)cc1C(=O)c1ccccc1,7.11 µM
6,O=C(Nc1ncccc1O)c1ccc2c(c1)OCO2,7.75 µM
7,CCOc1cc(/C=N/NC(=O)N/N=C/c2ccc(O)c(OCC)c2)ccc1O,13.1 µM
8,COc1ccc(N=C(C)c2sc3ccccc3c2O)cc1,4.78 µM
9,COc1cccc(-c2csc(NC(=O)C3CC3)n2)c1,13.9 µM
10,O=c1cc(-c2cccs2)oc2ccc(Cl)cc12,5.83 µM
11,Cc1ccc(/C=N/Nc2nc3ccccc3[nH]2)s1,16.1 µM
12,COc1ccc(/C=C/c2ccncc2)cc1,11.1 µM
13,O=c1/c(=C\c2ccc(F)cc2)sc2n1CCCN=2,12.5 µM
14,O=C(COC(=O)c1cccs1)c1ccc2ccccc2c1,9.52 µM
15,Cc1ccc2nc(-c3ccc(NS(=O)(=O)c4c(C)n(C)c(=O)n(C)c4=O)cc3)sc2c1,2.2 µM
16,O=C(O)c1ccc(/C=C(\c2nc3ccccc3[nH]2)c2nc3ccccc3s2)cc1,15.8 µM
17,Nc1ccc(N=Nc2ccccc2Cl)c(N)n1,4.42 µM

row,Compound,AC30
1,CC(C)c1ccc(NC(=O)c2ccccc2NC(=O)C2CCCCC2C(=O)O)cc1 (centres undefined),15.5 µM
2,CC(=O)N(C)c1ccc(NC(=O)c2ccco2)cc1,11.6 µM
3,COc1cccc(-c2nnc(SCC(=O)N(C(C)C)C(C)C)o2)c1,20.7 µM
4,Cc1ccc(COc2ccc3c(c2)OCO3)cc1,17 µM
5,O=C(NCCc1c[nH]c2ccccc12)c1cc2ccccc2oc1=O,13.4 µM
6,Cn1c(SCC(=O)c2ccccc2)nnc1-c1ccco1,4.78 µM
7,Cc1ccc(C(=O)Nc2cccc(-c3ccc(N4CCOCC4)nn3)c2)cc1[N+](=O)[O-],9.12 µM
8,O=C(c1cccs1)c1coc2ccc(O)cc12,15 µM
9,CCOCC(=O)Nc1nc2ccc(OCC)cc2s1,11.8 µM
10,O=C(Cc1nc2ccccc2[nH]1)c1ccc([N+](=O)[O-])cc1,7.12 µM
11,COc1ccc2cc(-c3ccn[nH]3)ccc2c1,4.78 µM
12,COc1ccc(CCNC(=O)c2cc(-c3ccco3)on2)cc1OC,11.4 µM
13,O=C(Nc1ccccc1O)c1ccc(NS(=O)(=O)c2cccc3cccnc23)cc1,3.53 µM
14,CN1CCSc2ccc(C(=O)Nc3cc(F)ccc3F)cc21,2.35 µM
15,C=CCNC(=O)c1ccc2c3n(nc2c1)-c1ccc(Cl)cc1CO3,9.82 µM
16,COc1ccc(NC(=O)n2ncc3c(C)cccc32)cc1,4.78 µM
17,CSc1ccc(C(=O)/C=C/c2ccc(N)cc2)cc1,6.32 µM
